In this test the target is T1, GLUT1 (Homo sapiens, UniProt P11166).
T1 sequence (P11166 1-492): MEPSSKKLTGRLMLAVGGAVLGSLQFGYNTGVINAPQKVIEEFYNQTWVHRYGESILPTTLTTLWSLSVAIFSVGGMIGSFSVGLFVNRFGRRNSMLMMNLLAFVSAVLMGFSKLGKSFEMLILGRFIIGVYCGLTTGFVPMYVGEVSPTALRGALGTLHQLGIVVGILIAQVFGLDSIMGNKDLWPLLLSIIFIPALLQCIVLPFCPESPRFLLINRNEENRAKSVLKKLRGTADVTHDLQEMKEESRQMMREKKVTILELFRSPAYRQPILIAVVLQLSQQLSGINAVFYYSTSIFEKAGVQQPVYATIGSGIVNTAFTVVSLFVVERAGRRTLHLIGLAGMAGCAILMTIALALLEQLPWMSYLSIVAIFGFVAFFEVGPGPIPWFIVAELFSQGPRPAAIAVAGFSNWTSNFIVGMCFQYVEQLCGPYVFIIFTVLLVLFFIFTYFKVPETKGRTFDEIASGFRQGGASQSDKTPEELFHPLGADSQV
The test can be described thus: Indirect measurement of GLUT1 activity by quantification of intracellular ATP levels (glucose induced ATP increase). In kind it is cell-based. Details: endogenous in cells; host or cells: DLD1 or CHO-K1. Particulars: read-out: IC50 regarding glucose induced ATP increase (GLUT1 inhibition). An excerpt: Indirect Measurement of GLUT1 and GLUT2 Activity by Quantification of Intracellular ATP Levels
It is well known that a combination of small-molecule inhibitors of mitochondrial electron transport chain and glucose catabolism synergistically suppress ATP production and impair cellular viability (Ulanovskaya et al., 2008, 2011; Liu, et al. 2001). We therefore used DLD1 or CHO-K1 cells in combination with an oxidative phosphorylation inhibitor to identify GLUT1 and GLUT2 inhibitors. Cell lines were maintained in DMEM medium supplemented with 10% FCS and 1% Penicillin-Streptomycin solution and 2% Glutamax. The cells were treated with trypsin and seeded into 384 plates at a density of 4000 cells/well. The cells were then cultured overnight in glucose free media containing 1% FCS to reduce intracellular ATP levels. […] The CellTiter-Glo® Luminescent Cell Viability Assay from Promega was then used to measure ATP Levels.
For `Cc1c(NC(=O)c2cc(C(N)=O)nc3ccccc23)c(C(F)(F)F)nn1C(C)c1ccccc1` (racemic) [Example 1397], the IC50 (usually the concentration at which inhibition is half-maximal) is 4.3 nM. Under `Cc1nn(Cc2ccc(C#N)cc2)c(C(C)C)c1NC(=O)c1cc(C(N)=O)nc2ccccc12` [Example 323, N^4-[1-(4-cyanobenzyl)-5-isopropyl-3-methyl-1H-pyrazol-4-yl]quinoline-2,4-dicarboxamide] stands 39.4 nM; under `Cc1nn(Cc2cccc(F)c2)c(C)c1NC(=O)c1cc(C(F)(F)F)nc2ccc(Br)cc12` [Example 72, 6-bromo-N-[1-(3-fluorobenzyl)-3,5-dimethyl-1H-pyrazol-4-yl]-2-(trifluoromethyl)quinoline-4-carboxamide], 177 nM.

On to `Cc1c(NC(=O)c2cc(C(N)=O)nc3cc(F)ccc23)c(C(F)(F)F)nn1Cc1cc(C2CC2)on1` [Example 1550], for which the IC50 came out at 34.8 nM. Under `CCS(=O)(=O)N1CCC(Cn2nc(C(F)(F)F)c(NC(=O)c3cc(C(N)=O)nc4cc(F)c(Cl)cc34)c2C)CC1` [Example 413, 6-chloro-N^4-[1-{[1-(ethylsulfonyl)piperidin-4-yl]methyl}-5-methyl-3-(trifluoromethyl)-1H-pyrazol-4-yl]-7-fluoroquinoline-2,4-dicarboxamide] stands 5.6 nM; under `Cc1cc(Cn2nc(C(F)(F)F)c(NC(=O)c3cc(C(N)=O)nc4ccccc34)c2C)on1` [Example 1543], 112 nM; under `Cc1c(NC(=O)c2cc(C(N)=O)nc3cccc(F)c23)c(C(F)(F)F)nn1Cc1cccc(OC(F)(F)F)c1` [Example 1584], 544 nM.

As to `Cc1c(NC(=O)c2cc(C(=O)N3CCOCC3)nc3ccc(F)cc23)c(C(F)(F)F)nn1Cc1ccc(C#N)cc1` [Example 1564], the IC50 was 112 nM.

As for `CNC(=O)c1ccc(Cn2nc(C)c(NC(=O)c3cc(C(F)(F)F)nc4ccc(Br)cc34)c2C)nc1` [Example 1070], the IC50 was 20.2 nM. Under `Cc1c(NC(=O)c2cc(C(N)=O)nc3ccc(O)cc23)c(C(F)(F)F)nn1Cc1ccc(C#N)cc1` [Example 425, N^4-[1-(4-cyanobenzyl)-5-methyl-3-(trifluoromethyl)-1H-pyrazol-4-yl]-6-hydroxyquinoline-2,4-dicarboxamide] stands 4.9 nM. Take `Cc1nn(Cc2ccc(OC(F)(F)F)cc2)c(C)c1NC(=O)c1cc(C(N)=O)nc2cc(F)ccc12` [Example 1461]: the IC50 turned out to be 8.7 nM. As for `Cc1nn(Cc2ccc(F)cc2)c(C)c1NC(=O)c1cc(Br)nc2ccccc12` [Example 36, 2-bromo-N-[1-(4-fluorobenzyl)-3,5-dimethyl-1H-pyrazol-4-yl]quinoline-4-carboxamide], the half-inhibitory concentration (IC50) was determined as 88.9 nM. Under `Cc1nn(Cc2ccc(C(=O)NCCn3ccnc3)cc2)c(C)c1NC(=O)c1cc(C(F)(F)F)nc2ccc(Br)cc12` [Example 1116] stands 59.5 nM. For the compound `Cc1ccc2nc(C(N)=O)cc(C(=O)Nc3c(C)nn(Cc4ccc(C#N)cc4)c3C)c2c1` [Example 264, N^4-[1-(4-cyanobenzyl)-3,5-dimethyl-1H-pyrazol-4-yl]-6-methylquinoline-2,4-dicarboxamide], the IC50 stood at 2.6 nM. In the case of `CCc1nn(Cc2ccc(F)cc2)c(CC)c1NC(=O)c1cc(C(N)=O)nc2cc(Cl)ccc12` [Example 1391], the IC50 was 362 nM.

`Cc1nn(Cc2ccc(C(C)(C)C)cc2)c(C)c1NC(=O)c1cc(C(N)=O)nc2ccccc12` [Example 1369]: the IC50 is 143 nM. Under `Cc1nn(Cc2ccc(F)c(F)c2)c(C)c1NC(=O)c1cc(C(N)=O)nc2cc(F)c(Cl)cc12` [Example 1472] stands 0.9 nM; under `COc1cc(C(=O)Nc2c(C)nn(Cc3ncccc3C#N)c2C)c2ccccc2n1` [Example 1102], 43.5 nM. Under `Cc1c(NC(=O)c2cc(C(N)=O)nc3ccc(Br)cc23)c(C(F)(F)F)nn1Cc1ccc(F)cc1F` [Example 1442] stands 2 nM; under `Cc1nn(Cc2ccc(C(=O)NCc3ccccc3)cn2)c(C)c1NC(=O)c1cc(C(F)(F)F)nc2ccc(Br)cc12` [Example 1151], 128 nM; under `Cc1nn(Cc2ccc(OC(F)(F)F)cc2)c(C)c1NC(=O)c1cc(C(N)=O)nc2ccccc12` [Example 1460], 1.9 nM. Under `Cc1nn(Cc2ccc(F)c(Cl)c2)c(C)c1NC(=O)c1cc(C(F)(F)F)nc2ccc(Br)cc12` [Example 190, 6-bromo-N-[1-(3-chloro-4-fluorobenzyl)-3,5-dimethyl-1H-pyrazol-4-yl]-2-(trifluoromethyl)quinoline-4-carboxamide] stands 171 nM; under `Cc1c(NC(=O)c2cc(C(N)=O)nc3ccc(Br)cc23)c(C(F)(F)F)nn1Cc1ccc(OC(F)(F)F)cc1` [Example 1498], 8 nM. Take `Cc1ccc2nc(C)cc(C(=O)Nc3c(C)nn(Cc4ccc(C#N)c(F)c4)c3C)c2c1` [Example 1127]: the IC50 turned out to be 83.3 nM. Under `COc1cc(C(=O)Nc2c(C#N)nn(Cc3ccc(F)cc3)c2C)c2ccccc2n1` [Example 1418] stands 34.1 nM. Under `CC(C)c1c(NC(=O)c2cc(C(N)=O)nc3cc(F)ccc23)c(C(F)(F)F)nn1Cc1ccc(C#N)cc1` [Example 318, N^4-[1-(4-cyanobenzyl)-5-isopropyl-3-(trifluoromethyl)-1H-pyrazol-4-yl]-7-fluoroquinoline-2,4-dicarboxamide] stands 352 nM; under `Cc1nn(CC2COc3ccccc3O2)c(C)c1NC(=O)c1cc(C(F)(F)F)nc2ccc(Br)cc12` (centres unmarked) [Example 1208], 481 nM; under `Cc1nn(Cc2ccc(F)cc2)c(C)c1NC(=O)c1cc(C(F)(F)F)nc2ccc(Cl)cc12` [Example 14, 6-chloro-N-[1-(4-fluorobenzyl)-3,5-dimethyl-1H-pyrazol-4-yl]-2-(trifluoromethyl)quinoline-4-carboxamide], 11.5 nM.

`Cc1nn(Cc2ccc(F)cc2)c(C)c1NC(=O)c1cc(C2CC2)nc2c(C(F)(F)F)cccc12` [Example 108, 2-cyclopropyl-N-[1-(4-fluorobenzyl)-3,5-dimethyl-1H-pyrazol-4-yl]-8-(trifluoromethyl)quinoline-4-carboxamide]: the concentration for half-maximal inhibition (IC50) is 671 nM. Under `Cc1c(NC(=O)c2cc(C(F)(F)F)nc3ccc(Br)cc23)c(C(=O)O)nn1Cc1ccc(F)cc1` [Example 1271] stands 3060 nM; under `Cc1nn(Cc2ccc(C(=O)N3CCC(CO)CC3)cc2)c(C)c1NC(=O)c1cc(C(F)(F)F)nc2ccc(Br)cc12` [Example 1099], 41.9 nM; under `Cc1nn(Cc2ccc(F)cc2)c(C)c1NC(=O)c1c(C)c(O)nc2ccccc12` [Example 1272], 3180 nM.

As for `Cc1c(NC(=O)c2cc(C(N)=O)nc3cc(F)c(Cl)cc23)c(C(F)(F)F)nn1Cc1cccc(C#N)n1` [Example 1689], the IC50 came to 30.9 nM. Under `COc1cc2c(C(=O)Nc3c(C(F)(F)F)nn(Cc4ccc(C#N)cc4)c3C)cc(C(N)=O)nc2cc1F` [Example 242, N^4-[1-(4-cyanobenzyl)-5-methyl-3-(trifluoromethyl)-1H-pyrazol-4-yl]-7-fluoro-6-methoxyquinoline-2,4-dicarboxamide] stands 1 nM; under `Cc1c(NC(=O)c2cc(C(N)=O)nc3ccc(Br)cc23)c(C(F)(F)F)nn1Cc1ccc(C#N)cc1F` [Example 305, 6-bromo-N^4-[1-(4-cyano-2-fluorobenzyl)-5-methyl-3-(trifluoromethyl)-1H-pyrazol-4-yl]quinoline-2,4-dicarboxamide], 1.4 nM.

For the origin of these results see patent US20170037028A1 (BAYER PHARMA AKTIENGESELLSCHAFT, priority 2013, published 2017).
